These results are taken from patent US11890350B2, “Steroid acid-peptide based cytotoxic compounds” (DEFENCE THERAPEUTICS INC., priority 2021, dated 2024).

In data set [1] the test system is EL4 lymphoma. Description: EL4 tumor model in vivo. Further details: species or system C57BL/6 mice. As to conditions: for survival at day 40 / tumor growth: alone. The source says:
FIGS. 4A to 4F show the antitumoral effect of CA-SV40 on EL4 lymphoma in vivo. […] EL4 tumors without any treatment (i.e., PBS) are shown in black, whereas anti-PD-1 treatment alone is in orange and anti-CTLA-4 treatment alone is in purple. […]
Female C57BL/6 mice (n=10/group) received a SC injection of 5×10^5 EL4 cells at Day 0. Five days later (appearance of palpable tumors˜40-60 mm^3), mice were SC-injected with PBS, CA-SV40, anti-PD-1, or anti-CTLA4, alone or in combination.
The apoptosis observations obtained in vitro prompted us to explore whether CA-SV40 administration to mice with pre-established tumors can trigger a therapeutic effect. First, CA-SV40 was delivered alone using three different doses (47 μM, 95 μM, and 190 μM) every 48 h following the appearance of palpable tumors (EL4) (FIG. 4A) for a total of 5 injections. […] To further improve this response, we next combined the highest tested CA-SV40 dose (delivered daily instead of every 48 h) with the immune-checkpoint inhibitors (ICIs) anti-PD-1 or anti-CTLA4 (FIG. 4D). […]

Data set [2] concerns CT-26 colon carcinoma cells. Nature of the data set: Annexin V apoptosis assessment by flow cytometry. The class given is cell-based. As to conditions: 190 μM.
A further data set relates to EL4 cells. Description: Cytochrome C cargo release cell death assay. It is filed as cell-based. As for the experimental part: FIGS. 3A and 3B show the ability of CA-SV40 to promote cargo release in the cytoplasm of target cells.
Cytochrome C is a protein that is normally entrapped in the mitochondria but can be released upon intrinsic signaling known to trigger apoptosis. An experiment was designed where recombinant cytochrome C was added to EL4 cells either alone or in combination with CA-SV40 (47 μM) (FIG. 3A). […] In addition, it may explain the increase in intracellular ROS levels as it can damage endosomes/vesicles responsible for intracellular ROS transport.

Data set [3] relates to EL4 lymphoma. Description: PI / Annexin-V co-staining time course. The class given is cell-based. As for the experimental part: (§1) Percentages of double-positive stained cells is shown, which represents late apoptotic cells.
(§2) To further uncover the mechanism of cell death, we next investigated whether CA-SV40-triggered apoptosis is strictly occurring in the absence of necrosis. To do so, a co-staining experiment was conducted using propidium iodine (PI) and Annexin-V at different time points. […] Since a large number of anti-cancer molecules can trigger cell death via release or de novo production of reactive oxygen species (ROS), we next stained the EL4 lymphoma cells treated with CA-SV40 at the IC50 dose with MitoSOX™. […] This observation led us to test whether treatment with MitoTempo™ (blocking mitochondria-specific ROS) or N-acetylcysteine (NAC—building block for GSH) rescue from CA-SV40-triggered cell death.

For another data set, the system named is 4T1 breast cancer cells. Description: Annexin V apoptosis assessment by flow cytometry. The class given is cell-based. As to conditions: 4T-1; 190 μM. In general terms: A flow cytometer gives signals particle by particle.
Data set [4] deals with EL4 lymphoma cells. Description: Annexin V apoptosis assessment by flow cytometry. As to conditions: 190 μM. The class given is cell-based. As for the experimental part:
Annexin-V staining percentage after treatment with different Cholic acid-NLS conjugates (190 μM) is shown relative to live EL4 lymphoma cells (i.e., PBS treated cancer cells) by flow cytometry.

Another data set concerns mesenchymal stem cells. Description: Annexin V apoptosis assessment on normal cells. It is filed as cell-based. As to conditions: 190 μM.
Data set [5] relates to EL4 lymphoma cells. Nature of the data set: MitoSOX staining for ROS production. The class given is cell-based. As to conditions: CA-SV40 at the IC50 dose, up to 8 h. As for the experimental part:
as §1, §2

In a further data set the test system is macrophages. Nature of the data set: Annexin V apoptosis assessment on normal cells. It is filed as cell-based. As to conditions: 190 μM.
Data set [6] deals with bone marrow-derived dendritic cells. Nature of the data set: Annexin V apoptosis assessment on normal cells. The class given is cell-based, mouse. As to conditions: 190 μM. As for the experimental part: Mouse bone marrow derived DCs (BMDCs) were generated by flushing the whole marrow from mouse femurs using RPMI™ 1640 supplemented with 10% fetal bovine serum (FBS), 50 U/mL Penicillin-Streptomycin, 2 mM L-glutamine, 10 mM HEPES, 1% MEM Non-essential Amino Acids, 1 mM Sodium Pyruvate, 0.5 mM β-mercaptoethanol. Following red blood cell lysis, cells were then cultured in media supplemented with 50 ng/mL murine recombinant GM-CSF. The media was changed on days 2, 4, 6 and 8. On day 9, the media was replaced to include recombinant murine GM-CSF and LPS from Escherichia coli O111 (1 ng/mL) to stimulate DC maturation. Mature DCs were assessed by flow cytometry for their surface expression of CD3, CD19, NK1.1, CD11c, CD80, CD86, and I-A^b.

The subject of data set [7] is EL4 lymphoma cells. Nature of the data set: Rescue from CA-SV40-triggered apoptosis by ROS blockers. It is filed as cell-based. As for the experimental part:
as §1, §2

The next data set relates to EL4 T-cell lymphoma. Description: Cell death (kill) curve analysis by flow cytometry. As to conditions: alone, at any of the concentrations tested.
[8] abbreviates: highest tested dose (190 μM), every 48 h, 5 injections.

Peptide text beside a SMILES is read from it. * marks the point of attachment. Cholyl = C[C@H](CCC(=O)*)[C@H]1CC[C@H]2[C@@H]3[C@H](O)C[C@@H]4C[C@H](O)CC[C@]4(C)[C@H]3C[C@H](O)[C@]12C

On to `CSCC[C@H](NC(=O)[C@H](CS)NC(=O)CC[C@@H](C)[C@H]1CC[C@H]2[C@@H]3[C@H](O)C[C@@H]4C[C@H](O)CC[C@]4(C)[C@H]3C[C@H](O)[C@]12C)C(=O)NCC(=O)N[C@@H](CCCNC(=N)N)C(=O)N[C@H](C(=O)N[C@@H](CCCNC(=N)N)C(=O)N[C@H](C(=O)N[C@@H](CCCCN)C(=O)N[C@H](C(=O)N[C@H](C(=O)N[C@@H](CCCCN)C(=O)N[C@@H](CCCCN)C(=O)N[C@@H](C)C(=O)N[C@@H](C)C(=O)NCC(=O)NCC(=O)O)C(C)C)[C@@H](C)O)[C@@H](C)O)C(C)C` [CA-NLS1 RPS17] (Cholyl-CMGRVRTKTVKKAAGG-OH; N-terminus and C-terminus assumed), for which, in the data set with EL4 lymphoma [1] (setting [8]), the “survival at day 40” value stood at 20% and the tumor growth entry was “significantly delayed tumor growth”.

For `CC[C@H](C)[C@H](NC(=O)[C@H](CCCNC(=N)N)NC(=O)[C@H](CCCCN)NC(=O)[C@H](CCSC)NC(=O)[C@H](CC(C)C)NC(=O)[C@H](Cc1c[nH]cn1)NC(=O)[C@@H](NC(=O)[C@@H](NC(=O)[C@H](Cc1ccc(O)cc1)NC(=O)CNC(=O)[C@H](C)NC(=O)[C@@H](NC(=O)[C@H](CCCCN)NC(=O)[C@H](CC(N)=O)NC(=O)[C@H](CCCNC(=N)N)NC(=O)[C@H](CC(C)C)NC(=O)[C@H](CCCCN)NC(=O)[C@H](CCCCN)NC(=O)[C@H](CO)NC(=O)[C@H](CS)NC(=O)CC[C@@H](C)[C@H]1CC[C@H]2[C@@H]3[C@H](O)C[C@@H]4C[C@H](O)CC[C@]4(C)[C@H]3C[C@H](O)[C@]12C)[C@@H](C)CC)C(C)C)[C@@H](C)O)C(=O)O` [CA-NLS3 RPS17] (Cholyl-CSKKLRNKIAGYVTHLMKRI-OH; N-terminus and C-terminus assumed), in the data set with EL4 lymphoma [1] (setting [8]), the “survival at day 40” value worked out at 20% and the tumor growth result is reported as “significantly delayed tumor growth”.

Consider `CC(C)[C@H](NC(=O)[C@H](CCCCN)NC(=O)[C@H](CCCNC(=N)N)NC(=O)[C@H](CCCCN)NC(=O)[C@H](CCCCN)NC(=O)[C@H](CCCCN)NC(=O)[C@@H]1CCCN1C(=O)CNC(=O)[C@H](Cc1ccc(O)cc1)NC(=O)CNC(=O)[C@H](CS)NC(=O)CC[C@@H](C)[C@H]1CC[C@H]2[C@@H]3[C@H](O)C[C@@H]4C[C@H](O)CC[C@]4(C)[C@H]3C[C@H](O)[C@]12C)C(=O)NCC(=O)NCC(=O)O` [CA-SV40] (Cholyl-CGYGPKKKRKVGG-OH; N-terminus and C-terminus assumed), for which the “cell death through apoptosis (Annexin V staining)” value (in data set [2]; in the data set on 4T1 breast cancer cells; with EL4 lymphoma cells [4]) was “triggers cell death through apoptosis” in each case. For the same molecule, the antitumoral response result in the data set with EL4 lymphoma [1] (highest dose daily, combined with anti-PD-1 or anti-CTLA4, vs CA-SV40 alone) is “significantly enhanced the antitumoral response”. For the same molecule, the tumor growth entry is “significant delays in tumor growth” in the data set with EL4 lymphoma [1] (highest dose delivered daily) and “significantly delayed tumor growth” with EL4 lymphoma [1] (setting [8]). Further, the “increase in cell death” value in the data set on EL4 cells (CA-SV40 47 μM combined with cytochrome C) is listed as “three-fold”. The cell death with EL4 cells (CA-SV40 47 μM in combination with cytochrome C) is reported as 61%; with EL4 cells (before combination (weak CA-SV40 dose, 47 μM)), 19%. In addition, the “time at which apoptosis started occurring post-treatment” value in the data set on EL4 lymphoma [3] (PI/Annexin-V) is given as 1 h. Besides, the “time to complete death” value in the data set on EL4 lymphoma [3] (PI/Annexin-V) is reported as 8 h. Further, the “necrotic cells (PI+/Annexin V−)” value with EL4 lymphoma [3] (time course) is “no necrotic cells”. Also, the “cytotoxicity compared with CA-GWG-SV40” value in the data set with EL4 lymphoma cells [4] is listed as “notably higher”. The “apoptosis in normal cells” value (with mesenchymal stem cells; in the data set with macrophages; in [6]) was “induce apoptosis” each time. For the same molecule, the “ROS production (MitoSOX signal)” value in the data set on EL4 lymphoma cells [5] is reported as “time-dependent ROS production”.

Regarding `CC(=O)N[C@@H](CS)C(=O)O` [NAC, N-acetylcysteine], the “rescue from CA-SV40-triggered apoptosis” value in the data set with EL4 lymphoma cells [7] (CA-SV40 at IC50 dose) is “completely blocked apoptosis”; in the data set on EL4 lymphoma cells [7] (CA-SV40 at higher doses (IC100)) it was “incomplete but significant blockade”.

“SV40 NLS: NLS from SV-40 large T-antigen (e.g., PKKKRKV), unconjugated negative control”: the cytotoxic activity result in the data set on EL4 T-cell lymphoma is “did not exhibit any cytotoxic activity”.

On to “cytochrome C: recombinant cytochrome C protein, cargo added to EL4 cells [reference compound]”, for which the cell death entry in the data set with EL4 cells (recombinant cytochrome C alone) is on record as “did not trigger cell death”.
